No end group written: not given here. *: point of attachment. Biotin = O=C1N[C@H]2[C@H](CS[C@H]2CCCCC(=O)*)N1
Test system: human recombinant GST-CaN
Assay: Peptide/CaN interaction assay (biotinylated peptides on streptavidin beads, GST-CaN pull-down, Western blot)
Type: binding
Conditions: for percent of CaN recovered (signal for each/signal for CaN standard * 40%) / CaN binding (in words) / CaN binding lower than the PVIVIT peptide: Fig. 1H; for percent of CaN recovered (signal for each/signal for CaN standard * 40%): 10 μg N-terminally biotinylated peptide on streptavidin beads, 200 ng GST-CaN, 30 min, 4 °C, Western blot, mean (n=7; APP-17mer n=3); for Western blot data following CaN interaction with biotinylated peptides, (signal for each/signal for CaN standard) * 40%: biotinylated APP peptides, GST-CaN pull-down; for CaN binding relative to the APP (WT) peptide (in words): Fig. 4B, FAD mutant peptides
Source text: Recombinant rabbit monoclonal to APP (clone Y188; Abcam cat# ab32136; 1:5000 dilution), rabbit polyclonal to APLP1 (Proteintech cat # 12305-2-AP; 1:1000 dilution), and rabbit polyclonal to APLP2 (Proteintech cat # 15041-1-A; 1:500 dilution) were used to detect native APP family members on western blots or recombinant GFP-tagged APP family members as validation (see Fig. S1). A horseradish peroxidase (HRP)-conjugated goat anti-rabbit antibody (Sigma-Aldrich Cat# 12-348; 1:10,000 dilution) was used as secondary antibody for these western blots, while an HRP-conjugated mouse monoclonal antibody to GFP (Invitrogen cat # MA 515256HRP; 1:1000 dilution) was used to independently verify the expression of GFP or GFP-tagged APP family members. A mouse monoclonal antibody CaN (BD Biosciences Cat# 556350; 1:1000 dilution) was used for the detection of native and recombinant CaN on western blots and for co-immunoprecipitation and peptide-based interaction assays experiments, while nonspecific mouse IgG (Thermo Fisher Scientific Cat# 02-6502) was used as a control. An HRP-conjugated goat anti-mouse antibody (Sigma-Aldrich Cat# 12-349; 1:10,000 dilution) […] was used as secondary antibody for these western blots, while HRP-conjugated protein G (Sigma-Aldrich cat # 18-161; 1:5000 dilution) was used for the secondary detection of CaN in co-immunoprecipitation experiments. A mouse monoclonal anti-Flag antibody (Sigma-Aldrich Cat# F1804) was used for co-immunoprecipitations of recombinant APP family members, while an HRP-conjugated version of this antibody (Sigma-Aldrich Cat# A8592; 1:1000) was used for the detection on western blots.
The N-terminally biotinylated AKAP79(330-357) and Ht31peptides were synthesized by Biomolecules Midwest and used as positive and negative controls for CaN interaction as previously described ([20]).
Either PBS with fresh 0.1% Tween-20 and 0.1% bovine serum albumin added or a modified IP buffer (150 mM NaCl, 10 mM Hepes; 5 mM EDTA; pH 7.4) with fresh 0.5% CHAPSO and 0.1% bovine serum albumin was used for these assays. […] Streptavidin-coated dynabeads (20 μl; Invitrogen cat # 65601) were washed and then incubated with 10 μg biotinylated peptides for 15 min at 4 °C in 200 μl of buffer. Beads were washed rapidly (400 μl; 3×) to remove unbound peptide and then incubated with 200 ng human recombinant GST-CaN in 200 μl buffer for 30 min at 4 °C. Following three washes (400 μl; 5 min each), complexes were eluted in 40 μl 2× Laemmli buffer, and samples were separated by SDS-PAGE and analyzed by Western blotting as above. Blots were probed with the mouse monoclonal anti-CaN antibody followed by anti-mouse HRP for secondary detection and visualized by enhanced chemiluminescence and digitally acquired as above. For each blot, the intensity of each band was normalized to that of from the GST-CaN standard (80 ng). As this standard represented 40% of the 200 ng input, the ratio was multiplied by 40 to achieve the percent of CaN recovered.

Substance	percent of CaN recovered (signal for each/signal for CaN standard * 40%) [%]	Western blot data following CaN interaction with biotinylated peptides, (signal for each/signal for CaN standard) * 40% (mean of n = 6) [%]	Western blot data following CaN interaction with biotinylated peptides, (signal for each/signal for CaN standard) * 40% (replicate 1) [%]	Western blot data following CaN interaction with biotinylated peptides, (signal for each/signal for CaN standard) * 40% (replicate 2) [%]	Western blot data following CaN interaction with biotinylated peptides, (signal for each/signal for CaN standard) * 40% (replicate 3) [%]	Western blot data following CaN interaction with biotinylated peptides, (signal for each/signal for CaN standard) * 40% (replicate 4) [%]	Western blot data following CaN interaction with biotinylated peptides, (signal for each/signal for CaN standard) * 40% (replicate 5) [%]	Western blot data following CaN interaction with biotinylated peptides, (signal for each/signal for CaN standard) * 40% (replicate 6) [%]	CaN binding (in words)	CaN binding relative to the APP (WT) peptide (in words)	CaN binding lower than the PVIVIT peptide [%]
AKAP79: N-terminally biotinylated peptide derived from the AKAP79 CaN-binding domain, positive control (Biotin-EESKRMEPIAIIITDTEISEFDVTKSKN) [reference compound]	21.96										
MAGPHTMIVITGPHEE [V640M, biotinylated APP peptide incorporating the FAD mutation V640M]		42.81	69.77	35.90	61.53	25.01	31.86	32.78			
GVVIATVIVITLVMLKK [APP-17mer]	2.14								minimal affinity for CaN		
MAGPHTVIIITGPHEE [V642I, biotinylated APP peptide incorporating the FAD mutation V642I]		44.18	54.96	45.24	82.71	28.44	26.76	26.97			
MAGPHTVIVIPGPHEE [T644P, biotinylated APP peptide incorporating the FAD mutation T644P]		4.71	0.13	8.45	2.14	4.28	3.74	9.51		reliably reduced CaN binding	
MAGPHIVIVITGPHEE [T639I, biotinylated APP peptide incorporating the FAD mutation T639I]		54.45	94.68	40.64	44.78	37.21	55.66	53.70			
MAGPHSLIVLSGPHEE [APLP1]	13.18										~80
MAGPHTVIFITGPHEE [V642F, biotinylated APP peptide incorporating the FAD mutation V642F]		43.86	84.45	46.13	42.80	26.46	29.11	34.24			
MAGPHTVIVISGPHEE [APLP2]	42.75										~30
MAGPHTVFVITGPHEE [I641F, biotinylated APP peptide incorporating the FAD mutation I641F]		22.96	23.46	18.34	34.56	13.72	12.91	34.77		reduced substantially	
MAGPHTVIVITGPHEE [APP]	52.92								nearly the same extent as the PVIVIT peptide		
